Laboratory results from patent publication US10393730B2, “Energy malnutrition evaluation for liver disease test subject” (OTSUKA PHARMACEUTICAL CO., LTD., priority 2014, dated 2019).

Experiments:
[1] = non-fasting period and fasting period, control group versus liver cirrhosis model group, 2 mL/kg i.v., 0-120 minutes
Protocol: CCl4 (olive oil: CCl4=1:1) was administered subcutaneously to the dorsal regions of male SD rats (10 weeks of age: n=3) in an amount of 2 mL/kg twice a week for 12 weeks, thereby creating liver cirrhosis model rats. With a biogas analysis device (product name: Oxymax, Columbus Instruments), respiratory quotient and energy consumption of untreated rats (control group) and liver cirrhosis model rats (liver cirrhosis model group) were measured and calculated according to the instructions of the device.
Further, both the untreated rats and the liver cirrhosis model rats were fed from 19:00 on Day 1 of the test to 13:00 on Day 3, and were fasted from 13:00 on Day 3 to 13:00 on Day 4, as shown in FIG. 1 shown later. During the non-fasting period, the rats were allowed free access to feed (product name: CRF-1, Oriental Yeast Co., Ltd.). […]
The above-prepared ^13C-palmitic acid-containing composition was individually intravenously administered to the liver cirrhosis model rats and untreated rats prepared in the above Reference Example in an amount of 2 mL/kg (n=3). […] Expired air was collected at time points between before administration (0 minutes) to 120 minutes after the administration of ^13C-palmitic acid-containing composition. Δ^13C(‰) was measured and determined using an expired air analysis mass spectrometer (ABCA: product of Sercon).

[2] = set-up: species or system male SD rats (liver cirrhosis model rats and untreated rats); conditions: rat, in vivo, iv
Protocol: U-^13C-glucose (MW: 186, Cambridge Isotope Laboratories, Inc.) was dissolved in a physiological saline solution at a concentration of 50 μmol/ml, thereby preparing a ^13C-glucose-containing composition.

Row | Compound | expired air reaction (Δ^13C(‰)) [1] | expired air reaction (Δ^13C(‰)), day versus night [2]
1 | CCCCCCCCCCCCCCC[13C](=O)[O-].[Na+] [1-^13C-sodium palmitate] | showed similar transitions in the control group and the liver cirrhosis model group | –
2 | OC[C@H]1OC(O)[C@H](O)[C@@H](O)[C@@H]1O (some centres unmarked) [^13C-glucose-containing composition, U-^13C-glucose] | – | a significant difference in the expired air reaction (Δ^13C(‰)) was not observed between day and night
